The results in this text go back to paper PMC4128710 (Biochemical pharmacology, 2014).

One assay concerns A1 and A3 ARs. Description: Inhibition of forskolin-stimulated cAMP accumulation. For orientation: Changes in cAMP serve as a functional read-out for many G protein-coupled receptors.
Assay [1] deals with T1, A2BAR (Homo sapiens, UniProt P29275).
T1 sequence (P29275 1-332): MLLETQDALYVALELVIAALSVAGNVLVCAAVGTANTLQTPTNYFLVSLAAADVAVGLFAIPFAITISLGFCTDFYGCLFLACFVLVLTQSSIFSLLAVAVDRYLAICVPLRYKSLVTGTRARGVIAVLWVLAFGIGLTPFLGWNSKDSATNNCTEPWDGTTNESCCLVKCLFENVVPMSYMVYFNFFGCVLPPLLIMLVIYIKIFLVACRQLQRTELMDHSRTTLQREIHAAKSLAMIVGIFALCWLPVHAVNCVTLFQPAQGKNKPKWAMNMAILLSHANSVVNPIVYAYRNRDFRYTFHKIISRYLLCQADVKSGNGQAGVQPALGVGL
Description: ERK1/2 phosphorylation in T24 cells. Conditions: for ERK1/2 stimulation: T24 cells; for Emax: T-24, read-out: Max effect ERK1/2 (% of effect of NECA).

For assay [2], the target named is T1, A2BAR. The assay can be described thus: cAMP accumulation in 1321N1 astrocytoma cells endogenously expressing the A2BAR. Conditions: for Emax: 1321-N1, read-out: Max effect cAMP accumulation.
Assay [3] addresses T1, A2BAR. The assay can be described thus: cAMP accumulation in HEK293 cells overexpressing the A2BAR. To be noted: for Emax: HEK293, read-out: Max effect cAMP (% of effect of NECA); for τ: operational model, A2BAR-overexpressing HEK293.
For assay [4], the target named is T1, A2BAR. Description: ERK1/2 phosphorylation in HEK293 cells overexpressing the A2BAR. To be noted: for log (τ/KA) / τ / Δlog (τ/Ka): ERK1/2 pathway; for τ: operational model, A2BAR-overexpressing HEK293; for Δlog (τ/Ka): relative to NECA; for ΔΔlog (τ/KA): ERK1/2 versus cAMP reference pathway; for Bias: ERK1/2 versus cAMP, bias ≫1 disfavors the pathway; for Emax: HEK293, read-out: Max effect ERK1/2 (% of effect of NECA).

In assay [5] the target is T1, A2BAR. Description: Intracellular calcium mobilization in T24 cells. Conditions: T-24, read-out: Max effect Calcium (% of effect of NECA). In general terms: Calcium assays in cells follow changes in intracellular calcium, usually with a dye or a luminescent sensor.
Assay [6] has as its target T1, A2BAR. The assay can be described thus: cAMP accumulation in T24 cells endogenously expressing the A2BAR. To be noted: for Emax: T-24, read-out: Max effect cAMP (% of effect of NECA).
Assay [7] has as its system A2BAR. Description: cAMP accumulation in COS-7 cells endogenously expressing the A2BAR. To be noted: for Max effect cAMP accumulation: NECA = 100; for EC50: read-out: EC50 cAMP accumulation.
In assay [8] the target is T1, A2BAR. Description: cAMP accumulation in WM266 melanoma cells endogenously expressing the A2BAR. Conditions: for Emax: WM266, read-out: Max effect cAMP accumulation.
In assay [9] the target is T1, A2BAR. The assay can be described thus: Intracellular calcium mobilization in HEK293 cells. Conditions: HEK293, read-out: Max effect Calcium (% of effect of NECA).
The test system of assay [10] is mouse A2BAR. The assay can be described thus: β-Arrestin2 translocation in PathHunter CHO cells. Conditions: for ΔΔlog (τ/KA): β-Arrestin versus cAMP reference pathway; for Bias: β-Arrestin versus cAMP, bias ≫1 disfavors the pathway.
The target in assay [11] is T2, mouse A2BAR (Mus musculus, UniProt Q60614).
T2 sequence (Q60614 1-332): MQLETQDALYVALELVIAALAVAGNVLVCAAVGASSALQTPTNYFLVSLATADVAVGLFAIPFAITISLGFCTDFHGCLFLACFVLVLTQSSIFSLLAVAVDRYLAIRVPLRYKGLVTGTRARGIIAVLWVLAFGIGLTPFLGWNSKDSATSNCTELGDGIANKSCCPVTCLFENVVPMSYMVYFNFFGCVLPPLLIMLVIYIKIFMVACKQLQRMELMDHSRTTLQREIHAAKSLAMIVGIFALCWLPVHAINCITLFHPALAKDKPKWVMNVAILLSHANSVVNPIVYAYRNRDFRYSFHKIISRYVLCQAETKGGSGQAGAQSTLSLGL
Description: β-Arrestin2 translocation in PathHunter CHO cells. To be noted: for Emax: CHO, read-out: Max effect β-arrestin (% of effect of NECA); for log (τ/KA) / τ / Δlog (τ/Ka): β-Arrestin pathway; for τ: operational model, CHO mouse A2BAR; for Δlog (τ/Ka): relative to NECA.

In assay [12] the target is T1, A2BAR. Description: Intracellular calcium mobilization in HEK293 cells overexpressing the A2BAR. To be noted: for log (τ/KA) / τ: Calcium pathway; for τ: operational model, A2BAR-overexpressing HEK293; for ΔΔlog (τ/KA): Calcium versus cAMP reference pathway; for Bias: Calcium versus cAMP, bias ≫1 disfavors the pathway.
The target of assay [13] is T1, A2BAR. The assay can be described thus: ERK1/2 phosphorylation in HEK293 cells. Conditions: for Emax: HEK293, read-out: Max effect ERK1/2 (% of effect of NECA).
The target in assay [14] is T1, A2BAR. Conditions: for Emax: PC-3, read-out: Max effect cAMP accumulation.
Assay [15] has as its target T1, A2BAR. The assay can be described thus: cAMP accumulation in HEK293 cells endogenously expressing the A2BAR. Conditions: for Emax: HEK293, read-out: Max effect cAMP (% of effect of NECA).
The subject of assay [16] is MIN-6 mouse pancreatic β cells. The assay can be described thus: Insulin release in MIN6 cells. To be noted: MIN-6 cells, 16.7 mM glucose, 1 h. The format is cell-based.

Molecules are shown by their SMILES. Read-outs that look alike come from different tables or passages of the source.

As for `OC[C@H]1O[C@@H](n2cnc3c(NC4CCCC4)ncnc32)[C@H](O)[C@@H]1O` [CPA, N^6-cyclopentyladenosine], the “inhibition of forskolin-stimulated cAMP accumulation” value in the assay on A1 and A3 ARs was “inactive”.
The EC50 is the concentration at which the effect is half-maximal. One may read the Kd as the constant that tells how readily two partners part at equilibrium. As for `N#Cc1c(N)nc(SCC(N)=O)c(C#N)c1-c1ccc(OCC2CC2)cc1` [BAY, 2-[[6-amino-3,5-dicyano-4-[4-(cyclopropylmethoxy)phenyl]-2-pyridinyl]thio]acetamide], the “ERK1/2 stimulation” value on A2BAR [1] is listed as “did not produce any stimulation”. Besides, the Emax at A2BAR [1] was -9.4 ± 3.8%; on A2BAR [2], 52.6 ± 3.1%; on A2BAR [3], 102 ± 1%; on A2BAR [4], 38.4 ± 3.3%; on A2BAR [5], 2.3 ± 1.5%; at A2BAR [6], 62.9 ± 9.6%. The Emax was 9.8 ± 1.7% at A2BAR [8]; -2.4 ± 1.7% on A2BAR [9]; 26.6 ± 3% on mouse A2BAR [11]; 38.3 ± 5.9% at A2BAR [13]; 72.6 ± 5.1% on A2BAR [14]; 73 ± 12.1% on A2BAR [15]. Further, the EC50 at A2BAR [2] turned out to be 0.113 ± 0.017 µM; on A2BAR [3], 0.00614 ± 0.00161 µM; at A2BAR [4] it was 0.0289 ± 0.0041 µM; at A2BAR [6] (EC50 cAMP accumulation, T24 cells, 5 nM A2BAR siRNA), 0.102 ± 0.017 µM; on A2BAR [6] (EC50 cAMP accumulation, T24 cells, 50 nM A2BAR siRNA), 0.127 ± 0.031 µM; on A2BAR [6] (EC50 cAMP accumulation, T24 cells, 500 nM A2BAR siRNA) it was 0.093 ± 0.019 µM. In addition, the EC50 amounted to 0.098 ± 0.022 µM at A2BAR [6] (EC50 cAMP accumulation, T24 cells, absence of A2BAR siRNA); 0.043 ± 0.0177 µM on A2BAR [6] (EC50 cAMP, T24 cells); 0.0079 ± 0.0012 µM with A2BAR [7]; 5.62 ± 1.24 µM on mouse A2BAR [11]; 1.1 ± 0.39 µM at A2BAR [12]; 0.0688 ± 0.0047 µM at A2BAR [13]. Moreover, the EC50 at A2BAR [14] was determined as 0.0453 ± 0.0059 µM; on A2BAR [15] it was 0.296 ± 0.146 µM. For the same molecule, the Kd is 0.705 µM on A2BAR [3], 0.0595 µM at A2BAR [4], 12.3 µM at mouse A2BAR [11] and 1.67 µM on A2BAR [12]. The “log (τ/KA)” value on A2BAR [3] (cAMP pathway) is 8.15 ± 0.38; on A2BAR [4], 7.02 ± 0.44; at mouse A2BAR [11], 4.30 ± 0.17; on A2BAR [12], 4.66 ± 0.35. In addition, the τ is given as 100 on A2BAR [3] (cAMP pathway), 0.62 on A2BAR [4], 0.25 at mouse A2BAR [11] and 0.08 on A2BAR [12]. Also, the “Δlog (τ/Ka)” value at A2BAR [3] (cAMP pathway, relative to NECA) was 0.73 ± 0.04; on A2BAR [4] it was 1.39 ± 0.17; at mouse A2BAR [11], -1.43 ± 0.09. The “ΔΔlog (τ/KA)” value on A2BAR [4] is given as -0.66; with mouse A2BAR [10] it was 2.16; at A2BAR [12], 4.22. In addition, the Bias at A2BAR [4] was determined as 0.22; with mouse A2BAR [10], 145; on A2BAR [12], 16600. In addition, the “maximum agonist effect, cAMP accumulation (NECA as 100%)” value at A2BAR [6] (T24 cells, 5 nM A2BAR siRNA) is 54 ± 4%; at A2BAR [6] (T24 cells, 50 nM A2BAR siRNA), 48 ± 6%; on A2BAR [6] (T24 cells, 500 nM A2BAR siRNA) it was 36 ± 3%; at A2BAR [6] (T24 cells, absence of A2BAR siRNA), 68 ± 7%. Further, the “τ value (operational model), cAMP accumulation” value is 1.19 at A2BAR [6] (T24 cells, siRNA silencing / overexpression methods) and 1.54 on A2BAR [15] (HEK293 cells, siRNA silencing / overexpression methods). Also, the “Max effect cAMP accumulation” value with A2BAR [7] is recorded as 98.3±3.7%. Also, the “Glucose stimulated insulin secretion” value in assay [16] is “induced insulin secretion”.
Turning to `CNC(=O)[C@H]1O[C@@H](n2cnc3c(NCc4cccc(I)c4)nc(Cl)nc32)[C@H](O)[C@@H]1O` [Cl-IB-MECA], the “inhibition of forskolin-stimulated cAMP accumulation” value in the assay on A1 and A3 ARs was “inactive”.
For `CCCn1c(=O)[nH]c2nc(-c3ccc(S(=O)(=O)N4CCN(c5ccc(Cl)cc5)CC4)cc3)[nH]c2c1=O` [PSB603], the “Glucose stimulated insulin secretion” value in assay [16] is given as “induced insulin secretion”.
Turning to `Nc1nc(OCCc2c[nH]c3cc(Br)ccc23)nc2c1ncn2[C@@H]1O[C@H](CO)[C@@H](O)[C@H]1O` [MRS3997, 2-(2-(6-bromo-indol-3-yl)ethyloxy)adenosine], on A2BAR [1], the “ERK1/2 stimulation” value is recorded as “did not produce any stimulation”. Besides, the Emax at A2BAR [1] was -8.2 ± 7.6%; at A2BAR [2], 98.4 ± 3.1%; at A2BAR [3] it was 102 ± 6.6%; on A2BAR [4] it was 29.7 ± 2.6%; at A2BAR [5], -2.7 ± 3.2%; on A2BAR [6], 94.9 ± 2.2%. Besides, the Emax at A2BAR [8] was found to be 96.2 ± 1.8%; at A2BAR [9], 1.6 ± 2.2%; at mouse A2BAR [11] it was 28.1 ± 3.5%; at A2BAR [13], 42.3 ± 9.4%; on A2BAR [14], 98.2 ± 7.7%; on A2BAR [15] it was 96.2 ± 24.3%. For the same molecule, the EC50 amounted to 1.26 ± 0.18 µM on A2BAR [2]; 0.0629 ± 0.0076 µM on A2BAR [3]; 0.203 ± 0.048 µM at A2BAR [4]; 0.745 ± 0.225 µM on A2BAR [6]; 0.226 ± 0.032 µM in the assay with A2BAR [7]; 1.87 ± 0.32 µM at A2BAR [8]. Moreover, the EC50 on A2BAR [13] amounted to 0.166 ± 0.032 µM; on A2BAR [14], 0.48 ± 0.032 µM; on A2BAR [15] it was 1.02 ± 0.25 µM. Further, the Kd at A2BAR [3] turned out to be 6.7 µM; on A2BAR [4] it was 0.362 µM; on mouse A2BAR [11], 18.1 µM; at A2BAR [12], 7.1 µM. Also, the “log (τ/KA)” value was 6.83 ± 0.45 on A2BAR [3] (cAMP pathway), 6.08 ± 0.89 at A2BAR [4], 4.17 ± 0.23 on mouse A2BAR [11] and 3.35 ± 0.44 at A2BAR [12]. In addition, the τ on A2BAR [3] (cAMP pathway) worked out at 45.1; at A2BAR [4] it was 0.44; at mouse A2BAR [11] it was 0.27; on A2BAR [12], 0.02. In addition, the “Δlog (τ/Ka)” value is 0.45 ± 0.03 on A2BAR [4] and -1.56 ± 0.18 at mouse A2BAR [11]. In addition, the “ΔΔlog (τ/KA)” value amounted to 0.14 at A2BAR [4], 2.15 in the assay on mouse A2BAR [10] and 4.06 at A2BAR [12]. For the same molecule, the Bias at A2BAR [4] was found to be 1.38; in the assay on mouse A2BAR [10], 141; on A2BAR [12] it was 11500. In addition, the “Max effect cAMP accumulation” value in the assay with A2BAR [7] was 100±6%.
